Literature values, collected in patent US11725135B2 (priority 2019, dated 2023).

SMILES	concentration above which precipitation occurs / solubility [mg/mL]
F[Si-2](F)(F)(F)(F)F.[Na+].[Na+] [Na2SiF6]	6.4
F[Si-2](F)(F)(F)(F)F.[K+].[K+] [Example K2SiF6, potassium hexafluorosilicate]	1.8
